The source of these data is ChEMBL document CHEMBL1136892, “New 1alpha,25-dihydroxy-19-norvitamin D(3) compounds constrained in a single A-ring conformation: synthesis of the analogues by ring-closing metathesis route and their biological evaluation” (J Med Chem, 2009).

Experiment [1] has as its system Rattus norvegicus. Briefly: Effect on bone calcium mobilization in vitamin D-deficient weanling Sprague-Dawley rat assessed as serum calcium level at 35100 pmol/day, ip administered as 4 consecutive daily doses measured 24 hrs after last dose. The class given is functional.
Experiment [2] concerns Rattus norvegicus. Briefly: Effect on intestinal calcium transport in vitamin D-deficient weanling Sprague-Dawley rat assessed as increase in ratio of serosal to mucosal calcium level at 780 pmol/day, ip administered as 4 consecutive daily doses measured 24 hrs after last dose by everted gut sac method. The class given is functional.
Experiment [3] deals with Rattus norvegicus. In words: Effect on intestinal calcium transport in vitamin D-deficient weanling Sprague-Dawley rat assessed as increase in ratio of serosal to mucosal calcium level at 7020 pmol/day, ip administered as 4 consecutive daily doses measured 24 hrs after last dose by everted gut sac method. The class given is functional.
Experiment [4] has as its system Rattus norvegicus. In words: Effect on intestinal calcium transport in vitamin D-deficient weanling Sprague-Dawley rat assessed as increase in ratio of serosal to mucosal calcium level at 35100 pmol/day, ip administered as 4 consecutive daily doses measured 24 hrs after last dose by everted gut sac method. The class given is functional.
The target in the next experiment is T1, Vitamin D3 receptor (Rattus norvegicus, UniProt P13053).
T1 sequence (P13053 whole entry): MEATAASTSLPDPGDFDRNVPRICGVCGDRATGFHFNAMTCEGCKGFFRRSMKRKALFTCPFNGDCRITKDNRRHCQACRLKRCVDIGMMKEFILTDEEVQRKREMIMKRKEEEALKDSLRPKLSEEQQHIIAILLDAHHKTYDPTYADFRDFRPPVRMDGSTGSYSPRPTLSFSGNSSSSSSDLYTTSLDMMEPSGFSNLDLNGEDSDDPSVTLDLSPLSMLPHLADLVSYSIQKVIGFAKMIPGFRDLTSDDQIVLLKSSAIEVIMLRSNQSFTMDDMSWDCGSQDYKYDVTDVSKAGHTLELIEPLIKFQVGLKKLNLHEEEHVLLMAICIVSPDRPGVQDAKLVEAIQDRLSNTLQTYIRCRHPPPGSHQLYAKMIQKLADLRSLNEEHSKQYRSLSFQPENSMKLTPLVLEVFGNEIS
Briefly: Displacement of [3H]1-alpha,25-(OH)2D3 from rat recombinant full length VDR.

Experiment [5] deals with T2, Vitamin D3 receptor (Rattus norvegicus) (UniProt P13053).
T2 sequence (whole entry): T1 sequence (P13053 whole entry)
Briefly: Ratio of Ki of the drug to Ki of [3H]1-alpha,25-(OH)2D3 for rat recombinant full length VDR.

Experiment [6] has as its system HL-60. In words: Induction of human HL60 cell differentiation into monocytes after 4 days by NBT reduction assay. The class given is functional.
Experiment [7] deals with HL-60. In words: Ratio of ED50 of drug to ED50 of [3H]1-alpha,25-(OH)2D3 for induction of human HL60 cell differentiation into monocytes by NBT reduction assay. Type of experiment: functional.
Experiment [8] deals with T2, Vitamin D3 receptor (Rattus norvegicus). Briefly: Activity at VDR in rat osteosarcoma 17/2.8 cells assessed as transcriptional activation of 24-hydroxylase gene promoter after 16 hrs by luciferase reporter gene assay. In general terms: A reporter such as luciferase makes a cellular process visible.
The target is the same in experiment [9]. In words: Ratio of ED50 of compound to ED50 of [3H]1-alpha,25-(OH)2D3 for VDR in rat osteosarcoma 17/2.8 cells by 24-hydroxylase gene transcriptional activation assay.
The subject of experiment [10] is Rattus norvegicus. Briefly: Effect on bone calcium mobilization in vitamin D-deficient weanling Sprague-Dawley rat assessed as serum calcium level at 780 pmol/day, ip administered as 4 consecutive daily doses measured 24 hrs after last dose. The class given is functional.
In experiment [11] the test system is Rattus norvegicus. In words: Effect on bone calcium mobilization in vitamin D-deficient weanling Sprague-Dawley rat assessed as serum calcium level at 7020 pmol/day, ip administered as 4 consecutive daily doses measured 24 hrs after last dose. The class given is functional.
The test system of experiment [12] is Rattus norvegicus. In words: Effect on intestinal calcium transport in vitamin D-deficient weanling Sprague-Dawley rat assessed as ratio of serosal to mucosal calcium level at 87 pmol/day, ip administered as 4 consecutive daily doses measured 24 hrs after last dose by everted gut sac method. Type of experiment: functional.
In experiment [13] the test system is Rattus norvegicus. Briefly: Effect on intestinal calcium transport in vitamin D-deficient weanling Sprague-Dawley rat assessed as increase in ratio of serosal to mucosal calcium level at 260 pmol/day, ip administered as 4 consecutive daily doses measured 24 hrs after last dose by everted gut sac method. Type of experiment: functional.
Experiment [14] concerns Rattus norvegicus. In words: Effect on intestinal calcium transport in vitamin D-deficient weanling Sprague-Dawley rat assessed as increase in ratio of serosal to mucosal calcium level at 2340 pmol/day, ip administered as 4 consecutive daily doses measured 24 hrs after last dose by everted gut sac method. Type of experiment: functional.
Experiment [15] concerns Rattus norvegicus. Briefly: Effect on bone calcium mobilization in vitamin D-deficient weanling Sprague-Dawley rat assessed as serum calcium level at 87 pmol/day, ip administered as 4 consecutive daily doses measured 24 hrs after last dose. The class given is functional.
In experiment [16] the test system is Rattus norvegicus. In words: Effect on bone calcium mobilization in vitamin D-deficient weanling Sprague-Dawley rat assessed as serum calcium level at 260 pmol/day, ip administered as 4 consecutive daily doses measured 24 hrs after last dose. The class given is functional.
Experiment [17] has as its system Rattus norvegicus. In words: Effect on bone calcium mobilization in vitamin D-deficient weanling Sprague-Dawley rat assessed as serum calcium level at 2340 pmol/day, ip administered as 4 consecutive daily doses measured 24 hrs after last dose. Type of experiment: functional.

For the molecule `C=C1/C(=C\C=C2/CCC[C@]3(C)[C@@H]([C@H](C)CCCC(C)(C)O)CC[C@@H]23)C[C@H]2OCC=C2[C@@H]1O`, the Activity was found to be 9.6 mg/dL with Rattus norvegicus [1]; 11.3 mg/dL with Rattus norvegicus [2]; 10.2 mg/dL with Rattus norvegicus [3]; 8.7 mg/dL in the experiment on Rattus norvegicus [4]; 4.3 mg/dL with Rattus norvegicus [10]; 6.1 mg/dL in the experiment on Rattus norvegicus [11]. For the same molecule, the inhibition constant Ki (usually a measure of affinity in units of concentration, obtained from inhibition or displacement) on Vitamin D3 receptor is 60 nM. For the same molecule, the Ratio Ki in [5] came to 600. Besides, the ED50 was 1 ×10⁻⁶ M in the experiment with HL-60 [6] and 6 ×10⁻⁸ M in experiment [8]. Further, the “Ratio ED50” value with HL-60 [7] was found to be 330; in experiment [9] it was 300.
In the case of `C=C1/C(=C\C=C2/CCC[C@]3(C)[C@@H]([C@H](C)CCCC(C)(C)O)CC[C@@H]23)C[C@@H](O)C2=CCO[C@H]12`, the Activity in the experiment on Rattus norvegicus [2] was 9.7 mg/dL; in the experiment with Rattus norvegicus [3], 13.7 mg/dL; in the experiment with Rattus norvegicus [10], 4.3 mg/dL; in the experiment on Rattus norvegicus [11], 4.6 mg/dL. Also, on Vitamin D3 receptor, the inhibitory constant (Ki) stood at 0.2 nM. Moreover, the Ratio Ki in experiment [5] worked out at 2. Moreover, the results for the ED50 (in the experiment with HL-60 [6]; in experiment [8]) were 3 ×10⁻⁸ M and 6 ×10⁻⁹ M, respectively. The “Ratio ED50” value was 10 with HL-60 [7] and 30 in experiment [9].
Consider `C=C1/C(=C\C=C2/CCC[C@]3(C)[C@@H]([C@H](C)CCCC(C)(C)O)CC[C@@H]23)C[C@@H](O)C[C@@H]1O` [CALCITRIOL], for which the Activity in the experiment with Rattus norvegicus [1] worked out at 9 mg/dL; in the experiment with Rattus norvegicus [12], 8.9 mg/dL; in the experiment on Rattus norvegicus [13], 12 mg/dL; with Rattus norvegicus [2] it was 11.3 mg/dL; in the experiment on Rattus norvegicus [14] it was 10.2 mg/dL; with Rattus norvegicus [3], 10.2 mg/dL. Moreover, the Activity with Rattus norvegicus [4] stood at 8.7 mg/dL; with Rattus norvegicus [15], 4.9 mg/dL; in the experiment on Rattus norvegicus [16], 5.6 mg/dL; in the experiment with Rattus norvegicus [10], 5.8 mg/dL; in the experiment on Rattus norvegicus [17], 7.3 mg/dL; in the experiment on Rattus norvegicus [11], 7.9 mg/dL. The ED50 in the experiment with HL-60 [6] is 3 ×10⁻⁹ M; in [8], 2 ×10⁻¹⁰ M.
